Measured values reported in US20180303777A1, “Hyaluronate Compositions” (Cypress Pharmaceuticals, Inc., priority 2007, published 2018).

Test system: eczema
Assay: Treatment of eczema in a patient
Format: in vivo, human
Conditions: topical to the most gravely affected areas, before the composition
Description: A patient with eczema visited a pediatrician. […] The patient was prescribed desoximatasone for topical administration to the most gravely affected areas. […] Subsequently, the pediatrician provided the patient's parent with an amount of the exemplary composition as described in Example 3 in a suitable container-closure system, for daily administration to the patient.

## C[C@@H]1C[C@H]2[C@@H]3CCC4=CC(=O)C=C[C@]4(C)[C@@]3(F)[C@@H](O)C[C@]2(C)[C@H]1C(=O)CO [desoximatasone]
  results of topical treatment of eczema: not satisfactory
